From ChEMBL document CHEMBL1201862, “PubChem BioAssay data set” (2004)
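All cell lines were grown in 96-well plates and treated with compound for 48 hours. Abbreviation: GI50, concentration required for 50% inhibition of growth.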 The source made the active and inactive calls. Rule as the data show it: active = GI50 up to about 1.1 µM and inactive = higher.

Columns and labels:
Test in all cases: NCI-60 cell line screen, 48 h
[1] = tested on: K562
[2] = tested on: NCI-H226
[3] = tested on: KM12
[4] = tested on: SW-620
[5] = tested on: SF-268
[6] = tested on: MCF7
[7] = tested on: LOX IMVI
[8] = tested on: UO-31
[9] = tested on: A549
[10] = tested on: CCRF-CEM
[11] = tested on: NCI-H522
[12] = tested on: SNB-75
[13] = tested on: SF-295
[14] = tested on: IGROV-1
[15] = tested on: OVCAR-8
[16] = tested on: RXF 393
[17] = tested on: TK-10
[18] = tested on: M14
[19] = tested on: PC-3
[20] = tested on: DU-145

Row | SMILES | GI50 [1] | GI50 [2] | GI50 [3] | GI50 [4] | GI50 [5] | GI50 [6] | GI50 [7] | GI50 [8] | GI50 [9] | GI50 [10] | GI50 [11] | GI50 [12] | GI50 [13] | GI50 [14] | GI50 [15] | GI50 [16] | GI50 [17] | GI50 [18] | GI50 [19] | GI50 [20]
1 | C=CCNC(=O)C(C)C1CCC2(C)C=CC(=O)C(C)=C2C1O (stereo not drawn) | > 100 µM (inactive) | > 100 µM (inactive) | > 100 µM (inactive) | > 100 µM (inactive) | > 100 µM (inactive) | > 100 µM (inactive) | > 100 µM (inactive) | > 100 µM (inactive) | > 100 µM (inactive) | > 100 µM (inactive) | > 100 µM (inactive) | > 100 µM (inactive) | > 100 µM (inactive) | > 100 µM (inactive) | > 100 µM (inactive) | > 100 µM (inactive) | – | – | – | –
2 | COc1cc(/C=C2\CCc3ccccc3C2=O)ccc1O | 16.8 µM (inactive) | – | 16.3 µM (inactive) | 16.1 µM (inactive) | 27.1 µM (inactive) | 11.1 µM (inactive) | 15 µM (inactive) | 14.3 µM (inactive) | 22.1 µM (inactive) | 1.41 µM (inactive) | – | 28.5 µM (inactive) | – | 34.3 µM (inactive) | 19.1 µM (inactive) | 12 µM (inactive) | 18.7 µM (inactive) | 17.9 µM (inactive) | > 10 µM (inactive) | –
3 | O=C(O)CCC(NC(=O)c1ccc(Nc2cnc3cc(C(F)(F)F)ccc3n2)cc1)C(=O)O (stereo not drawn) | > 100 µM (inactive) | > 100 µM (inactive) | > 100 µM (inactive) | > 100 µM (inactive) | > 100 µM (inactive) | > 100 µM (inactive) | > 100 µM (inactive) | > 100 µM (inactive) | > 100 µM (inactive) | > 100 µM (inactive) | > 100 µM (inactive) | > 35.6 µM (inactive) | > 100 µM (inactive) | > 100 µM (inactive) | > 100 µM (inactive) | > 100 µM (inactive) | – | – | – | –
4 | CC12CCC3C(CCC4(O)C=CCCC34C=O)C1(O)CC(O)C2c1ccc(=O)oc1 (stereo not drawn) | 0.0741 µM (active) | 0.148 µM (active) | 0.0792 µM (active) | 0.0741 µM (active) | < 0.05 µM (active) | 0.0773 µM (active) | 0.0662 µM (active) | 0.0685 µM (active) | 0.0504 µM (active) | 0.0526 µM (active) | < 0.05 µM (active) | 0.0713 µM (active) | 0.0551 µM (active) | 0.0681 µM (active) | 0.0682 µM (active) | < 0.05 µM (active) | – | – | – | –
5 | CC(C)=CCc1c(O)ccc2c1OC1c3ccc(O)c(CC=C(C)C)c3OCC21 (stereo not drawn) | 4.42 µM (inactive) | 14 µM (inactive) | 10.2 µM (inactive) | 6.79 µM (inactive) | 11.2 µM (inactive) | 8.89 µM (inactive) | 6.81 µM (inactive) | 11.7 µM (inactive) | 7.94 µM (inactive) | 6.62 µM (inactive) | 11.3 µM (inactive) | 15.9 µM (inactive) | 11.6 µM (inactive) | 10.3 µM (inactive) | 8.22 µM (inactive) | 8.09 µM (inactive) | – | – | – | –
6 | O=[N+]([O-])c1ccc(Nc2cccc3c4cc[nH]c(-c5ccccc5)c-4nc23)c([N+](=O)[O-])c1 | 36.1 µM (inactive) | > 100 µM (inactive) | > 100 µM (inactive) | > 100 µM (inactive) | > 100 µM (inactive) | 54.2 µM (inactive) | > 100 µM (inactive) | > 100 µM (inactive) | > 100 µM (inactive) | 41.4 µM (inactive) | > 100 µM (inactive) | > 100 µM (inactive) | > 100 µM (inactive) | > 100 µM (inactive) | > 100 µM (inactive) | > 100 µM (inactive) | – | – | – | –
7 | Cc1c(C2=NN=C(/N=N/c3c(O)cccc3O)/C2=C/c2ccccc2)c(=O)n(-c2ccccc2)n1C | > 100 µM (inactive) | > 100 µM (inactive) | > 100 µM (inactive) | > 100 µM (inactive) | > 100 µM (inactive) | > 100 µM (inactive) | > 100 µM (inactive) | > 100 µM (inactive) | > 100 µM (inactive) | > 100 µM (inactive) | > 100 µM (inactive) | > 100 µM (inactive) | > 100 µM (inactive) | > 100 µM (inactive) | > 100 µM (inactive) | > 100 µM (inactive) | – | – | – | –
8 | COC1(OC)CCC2(C)OC(c3ccccc3)C1O2 (stereo not drawn) | > 100 µM (inactive) | > 100 µM (inactive) | > 100 µM (inactive) | > 100 µM (inactive) | > 100 µM (inactive) | – | > 100 µM (inactive) | > 100 µM (inactive) | > 100 µM (inactive) | > 100 µM (inactive) | > 100 µM (inactive) | > 100 µM (inactive) | > 100 µM (inactive) | > 100 µM (inactive) | > 100 µM (inactive) | > 100 µM (inactive) | > 100 µM (inactive) | > 100 µM (inactive) | – | –
9 | Cc1ccc(NC(=O)/C(CC(=O)c2c[n+]([O-])c3ccccc3[n+]2[O-])=N\NC(=O)C[n+]2ccccc2)cc1 | 48.6 µM (inactive) | > 100 µM (inactive) | > 100 µM (inactive) | > 100 µM (inactive) | > 100 µM (inactive) | – | > 100 µM (inactive) | > 100 µM (inactive) | > 100 µM (inactive) | > 100 µM (inactive) | > 100 µM (inactive) | > 100 µM (inactive) | > 100 µM (inactive) | > 100 µM (inactive) | > 100 µM (inactive) | > 100 µM (inactive) | > 100 µM (inactive) | > 100 µM (inactive) | – | –
10 | O=C1C=CC[C@H]2O[C@@H](COC(=O)Cc3ccccc3)C[C@H]2O1 | 55.6 µM (inactive) | 35.4 µM (inactive) | 18.2 µM (inactive) | 24 µM (inactive) | 25 µM (inactive) | 44.3 µM (inactive) | – | 32 µM (inactive) | 27.1 µM (inactive) | 41.4 µM (inactive) | – | 30.4 µM (inactive) | 30.4 µM (inactive) | 20 µM (inactive) | 28.7 µM (inactive) | – | 25.9 µM (inactive) | 31.7 µM (inactive) | 35.2 µM (inactive) | 88.9 µM (inactive)
11 | c1c(N2CCOCC2)s[s+]c1N1CCOCC1 | > 100 µM (inactive) | 13.3 µM (inactive) | > 100 µM (inactive) | > 100 µM (inactive) | > 100 µM (inactive) | – | > 100 µM (inactive) | > 100 µM (inactive) | > 100 µM (inactive) | > 100 µM (inactive) | > 100 µM (inactive) | > 100 µM (inactive) | > 100 µM (inactive) | > 100 µM (inactive) | > 100 µM (inactive) | > 100 µM (inactive) | 76.6 µM (inactive) | > 100 µM (inactive) | – | –
12 | CCC1(C)N=c2c(ncn2N=C(C)C)=C(C(N)=O)N1 (stereo not drawn) | > 100 µM (inactive) | > 100 µM (inactive) | 22.6 µM (inactive) | > 100 µM (inactive) | > 100 µM (inactive) | – | > 100 µM (inactive) | – | > 100 µM (inactive) | > 100 µM (inactive) | > 100 µM (inactive) | > 100 µM (inactive) | > 100 µM (inactive) | > 100 µM (inactive) | > 100 µM (inactive) | > 100 µM (inactive) | > 100 µM (inactive) | > 100 µM (inactive) | > 100 µM (inactive) | > 100 µM (inactive)
